From the NIST ThermoML archive (doi:10.1021/je400835u)
± gives the expanded uncertainty stated by the source.

Experiment: xn = mol fraction of the nth substance listed
Conditions: 100 kPa, Liquid; for viscosity: Falling or rolling sphere viscometry; for mass density: Vibrating tube method

CCCCC1CCCCC1 [butylcyclohexane] + CCCCCCC
Conditions	mass density, 293.15 K [kg/m3]	mass density, 298.15 K [kg/m3]	mass density, 303.15 K [kg/m3]	mass density, 308.15 K [kg/m3]	mass density, 313.15 K [kg/m3]	viscosity, 293.15 K [mPa·s]	viscosity, 298.15 K [mPa·s]	viscosity, 303.15 K [mPa·s]	viscosity, 308.15 K [mPa·s]	viscosity, 313.15 K [mPa·s]
x1 = 0.0499	691.14 ± 0.17	686.96 ± 0.18	682.7 ± 0.18	678.43 ± 0.18	674.27 ± 0.18	0.445 ± 0.011	0.422 ± 0.01	0.404 ± 0.01	0.38 ± 0.01	0.365 ± 0.01
x1 = 0.0991	698.01 ± 0.17	693.86 ± 0.17	689.65 ± 0.18	685.41 ± 0.18	681.26 ± 0.18	0.477 ± 0.011	0.453 ± 0.011	0.432 ± 0.01	0.408 ± 0.01	0.39 ± 0.01
x1 = 0.2001	711.59 ± 0.17	707.49 ± 0.17	703.36 ± 0.17	699.21 ± 0.17	695.08 ± 0.17	0.537 ± 0.011	0.51 ± 0.011	0.485 ± 0.011	0.463 ± 0.011	0.44 ± 0.011
x1 = 0.2995	724.33 ± 0.17	720.29 ± 0.17	716.21 ± 0.17	712.12 ± 0.17	708.05 ± 0.17	0.597 ± 0.011	0.564 ± 0.011	0.533 ± 0.011	0.508 ± 0.011	0.484 ± 0.011
x1 = 0.4006	736.73 ± 0.16	732.74 ± 0.16	728.7 ± 0.17	724.68 ± 0.17	720.66 ± 0.17	0.665 ± 0.011	0.623 ± 0.011	0.59 ± 0.011	0.56 ± 0.011	0.531 ± 0.011
x1 = 0.4984	748.17 ± 0.16	744.24 ± 0.16	740.26 ± 0.16	736.29 ± 0.16	732.29 ± 0.16	0.741 ± 0.011	0.694 ± 0.011	0.652 ± 0.011	0.617 ± 0.011	0.584 ± 0.011
x1 = 0.6015	759.68 ± 0.16	755.81 ± 0.16	751.86 ± 0.16	747.93 ± 0.16	744 ± 0.16	0.832 ± 0.012	0.776 ± 0.011	0.727 ± 0.011	0.685 ± 0.011	0.646 ± 0.011
x1 = 0.6993	770.09 ± 0.16	766.25 ± 0.16	762.36 ± 0.16	758.5 ± 0.16	754.58 ± 0.16	0.929 ± 0.012	0.865 ± 0.012	0.808 ± 0.012	0.758 ± 0.011	0.713 ± 0.011
x1 = 0.7999	780.33 ± 0.15	776.52 ± 0.15	772.68 ± 0.16	768.84 ± 0.16	764.98 ± 0.16	1.042 ± 0.013	0.966 ± 0.012	0.9 ± 0.012	0.842 ± 0.012	0.789 ± 0.012
x1 = 0.8999	790.07 ± 0.15	786.3 ± 0.15	782.5 ± 0.15	778.7 ± 0.16	774.89 ± 0.16	1.172 ± 0.013	1.083 ± 0.013	1.005 ± 0.012	0.936 ± 0.012	0.875 ± 0.012
x1 = 0.9501	794.82 ± 0.15	791.06 ± 0.15	787.29 ± 0.15	783.51 ± 0.15	779.72 ± 0.16	1.242 ± 0.013	1.146 ± 0.013	1.059 ± 0.013	0.988 ± 0.012	0.922 ± 0.012
x1 = 1	799.44 ± 0.15	795.7 ± 0.15	791.95 ± 0.15	788.19 ± 0.15	784.41 ± 0.15	1.296 ± 0.014	1.196 ± 0.013	1.107 ± 0.013	1.027 ± 0.013	0.958 ± 0.012

CCCCC1CCCCC1 [butylcyclohexane] + CCCCCCCC
Conditions	mass density, 293.15 K [kg/m3]	mass density, 298.15 K [kg/m3]	mass density, 303.15 K [kg/m3]	mass density, 308.15 K [kg/m3]	mass density, 313.15 K [kg/m3]	viscosity, 293.15 K [mPa·s]	viscosity, 298.15 K [mPa·s]	viscosity, 303.15 K [mPa·s]	viscosity, 308.15 K [mPa·s]	viscosity, 313.15 K [mPa·s]
x1 = 0.0495	708.15 ± 0.17	704.15 ± 0.17	700.12 ± 0.17	696.06 ± 0.17	691.99 ± 0.17	0.569 ± 0.011	0.547 ± 0.011	0.515 ± 0.011	0.49 ± 0.011	0.464 ± 0.011
x1 = 0.1008	713.59 ± 0.17	709.59 ± 0.17	705.57 ± 0.17	701.55 ± 0.17	697.5 ± 0.17	0.596 ± 0.011	0.573 ± 0.011	0.54 ± 0.011	0.512 ± 0.011	0.486 ± 0.011
x1 = 0.198	723.69 ± 0.17	719.73 ± 0.17	715.74 ± 0.17	711.75 ± 0.17	707.72 ± 0.17	0.647 ± 0.011	0.619 ± 0.011	0.582 ± 0.011	0.552 ± 0.011	0.524 ± 0.011
x1 = 0.3011	734.16 ± 0.16	730.24 ± 0.16	726.28 ± 0.16	722.33 ± 0.17	718.33 ± 0.17	0.707 ± 0.011	0.671 ± 0.011	0.63 ± 0.011	0.592 ± 0.011	0.565 ± 0.011
x1 = 0.4008	744.07 ± 0.16	740.18 ± 0.16	736.26 ± 0.16	732.33 ± 0.16	728.38 ± 0.16	0.771 ± 0.011	0.726 ± 0.011	0.68 ± 0.011	0.638 ± 0.011	0.606 ± 0.011
x1 = 0.4982	753.55 ± 0.16	749.7 ± 0.16	745.81 ± 0.16	741.91 ± 0.16	737.98 ± 0.16	0.839 ± 0.012	0.784 ± 0.012	0.735 ± 0.011	0.687 ± 0.011	0.652 ± 0.011
x1 = 0.5985	763.12 ± 0.16	759.29 ± 0.16	755.43 ± 0.16	751.56 ± 0.16	747.67 ± 0.16	0.918 ± 0.012	0.854 ± 0.012	0.799 ± 0.012	0.747 ± 0.011	0.705 ± 0.011
x1 = 0.6997	772.58 ± 0.15	768.77 ± 0.16	764.94 ± 0.16	761.1 ± 0.16	757.24 ± 0.16	1.004 ± 0.012	0.931 ± 0.012	0.87 ± 0.012	0.814 ± 0.012	0.765 ± 0.011
x1 = 0.7997	781.72 ± 0.15	777.93 ± 0.15	774.13 ± 0.16	770.31 ± 0.16	766.48 ± 0.16	1.097 ± 0.013	1.014 ± 0.012	0.945 ± 0.012	0.886 ± 0.012	0.83 ± 0.012
x1 = 0.9001	790.72 ± 0.15	786.95 ± 0.15	783.18 ± 0.15	779.39 ± 0.15	775.59 ± 0.16	1.2 ± 0.013	1.108 ± 0.013	1.029 ± 0.013	0.962 ± 0.012	0.898 ± 0.012
x1 = 0.951	795.17 ± 0.15	791.42 ± 0.15	787.66 ± 0.15	783.88 ± 0.15	780.1 ± 0.15	1.25 ± 0.014	1.156 ± 0.013	1.07 ± 0.013	0.996 ± 0.012	0.93 ± 0.012
x1 = 1	799.44 ± 0.15	795.7 ± 0.15	791.95 ± 0.15	788.19 ± 0.15	784.41 ± 0.15	1.296 ± 0.014	1.196 ± 0.013	1.107 ± 0.013	1.027 ± 0.013	0.958 ± 0.012

CCCCC1CCCCC1 [butylcyclohexane] + CCCCCCCCC
Conditions	mass density, 293.15 K [kg/m3]	mass density, 298.15 K [kg/m3]	mass density, 303.15 K [kg/m3]	mass density, 308.15 K [kg/m3]	mass density, 313.15 K [kg/m3]	viscosity, 293.15 K [mPa·s]	viscosity, 298.15 K [mPa·s]	viscosity, 303.15 K [mPa·s]	viscosity, 308.15 K [mPa·s]	viscosity, 313.15 K [mPa·s]
x1 = 0.0496	721.95 ± 0.16	718.07 ± 0.17	714.19 ± 0.17	710.29 ± 0.17	706.36 ± 0.17	0.745 ± 0.011	0.698 ± 0.011	0.659 ± 0.011	0.621 ± 0.011	0.588 ± 0.011
x1 = 0.1008	726.12 ± 0.16	722.26 ± 0.16	718.38 ± 0.17	714.48 ± 0.17	710.57 ± 0.17	0.764 ± 0.011	0.718 ± 0.011	0.677 ± 0.011	0.638 ± 0.011	0.603 ± 0.011
x1 = 0.2011	734.29 ± 0.16	730.45 ± 0.16	726.59 ± 0.16	722.71 ± 0.16	718.81 ± 0.17	0.807 ± 0.012	0.754 ± 0.011	0.712 ± 0.011	0.668 ± 0.011	0.63 ± 0.011
x1 = 0.3005	742.39 ± 0.16	738.56 ± 0.16	734.71 ± 0.16	730.85 ± 0.16	726.97 ± 0.16	0.852 ± 0.012	0.794 ± 0.012	0.745 ± 0.011	0.698 ± 0.011	0.659 ± 0.011
x1 = 0.3997	750.46 ± 0.16	746.65 ± 0.16	742.81 ± 0.16	738.96 ± 0.16	735.1 ± 0.16	0.901 ± 0.012	0.836 ± 0.012	0.783 ± 0.012	0.733 ± 0.011	0.692 ± 0.011
x1 = 0.4999	758.62 ± 0.16	754.82 ± 0.16	751 ± 0.16	747.17 ± 0.16	743.32 ± 0.16	0.956 ± 0.012	0.885 ± 0.012	0.827 ± 0.012	0.774 ± 0.011	0.729 ± 0.011
x1 = 0.5987	766.67 ± 0.16	762.89 ± 0.16	759.08 ± 0.16	755.26 ± 0.16	751.43 ± 0.16	1.015 ± 0.012	0.94 ± 0.012	0.876 ± 0.012	0.82 ± 0.012	0.77 ± 0.011
x1 = 0.7011	775.04 ± 0.15	771.26 ± 0.15	767.46 ± 0.16	763.66 ± 0.16	759.85 ± 0.16	1.081 ± 0.013	1.002 ± 0.012	0.934 ± 0.012	0.873 ± 0.012	0.817 ± 0.012
x1 = 0.8001	783.13 ± 0.15	779.35 ± 0.15	775.57 ± 0.15	771.78 ± 0.16	767.98 ± 0.16	1.152 ± 0.013	1.068 ± 0.013	0.996 ± 0.012	0.927 ± 0.012	0.866 ± 0.012
x1 = 0.8996	791.25 ± 0.15	787.5 ± 0.15	783.73 ± 0.15	779.96 ± 0.15	776.17 ± 0.16	1.223 ± 0.013	1.135 ± 0.013	1.052 ± 0.013	0.98 ± 0.012	0.915 ± 0.012
x1 = 0.9504	795.39 ± 0.15	791.64 ± 0.15	787.88 ± 0.15	784.11 ± 0.15	780.33 ± 0.15	1.262 ± 0.014	1.166 ± 0.013	1.08 ± 0.013	1.005 ± 0.012	0.938 ± 0.012
x1 = 1	799.44 ± 0.15	795.7 ± 0.15	791.95 ± 0.15	788.19 ± 0.15	784.41 ± 0.15	1.296 ± 0.014	1.196 ± 0.013	1.107 ± 0.013	1.027 ± 0.013	0.958 ± 0.012
